Active and inactive are the calls of the source. The rule behind the calls is not given here.
Tests used:
[1] = test system: Radical scavenging activity; assay: Antioxidant activity assessed as DPPH free radical scavenging activity at 20 ug/ml after 30 min by spectrophotometric analysis; format: functional
[2] = target: Lysosomal alpha-glucosidase (Rattus norvegicus) (UniProt Q6P7A9); assay: Inhibition of rat intestinal alpha-glucosidase using para-nitrophenyl-alpha-D-glucopyranoside as substrate at 25 ug/ml incubated for 5 min prior to substrate addition measured after 5 min by spectrophotometric analysis
Lysosomal alpha-glucosidase (Rattus norvegicus), sequence (Q6P7A9 whole entry): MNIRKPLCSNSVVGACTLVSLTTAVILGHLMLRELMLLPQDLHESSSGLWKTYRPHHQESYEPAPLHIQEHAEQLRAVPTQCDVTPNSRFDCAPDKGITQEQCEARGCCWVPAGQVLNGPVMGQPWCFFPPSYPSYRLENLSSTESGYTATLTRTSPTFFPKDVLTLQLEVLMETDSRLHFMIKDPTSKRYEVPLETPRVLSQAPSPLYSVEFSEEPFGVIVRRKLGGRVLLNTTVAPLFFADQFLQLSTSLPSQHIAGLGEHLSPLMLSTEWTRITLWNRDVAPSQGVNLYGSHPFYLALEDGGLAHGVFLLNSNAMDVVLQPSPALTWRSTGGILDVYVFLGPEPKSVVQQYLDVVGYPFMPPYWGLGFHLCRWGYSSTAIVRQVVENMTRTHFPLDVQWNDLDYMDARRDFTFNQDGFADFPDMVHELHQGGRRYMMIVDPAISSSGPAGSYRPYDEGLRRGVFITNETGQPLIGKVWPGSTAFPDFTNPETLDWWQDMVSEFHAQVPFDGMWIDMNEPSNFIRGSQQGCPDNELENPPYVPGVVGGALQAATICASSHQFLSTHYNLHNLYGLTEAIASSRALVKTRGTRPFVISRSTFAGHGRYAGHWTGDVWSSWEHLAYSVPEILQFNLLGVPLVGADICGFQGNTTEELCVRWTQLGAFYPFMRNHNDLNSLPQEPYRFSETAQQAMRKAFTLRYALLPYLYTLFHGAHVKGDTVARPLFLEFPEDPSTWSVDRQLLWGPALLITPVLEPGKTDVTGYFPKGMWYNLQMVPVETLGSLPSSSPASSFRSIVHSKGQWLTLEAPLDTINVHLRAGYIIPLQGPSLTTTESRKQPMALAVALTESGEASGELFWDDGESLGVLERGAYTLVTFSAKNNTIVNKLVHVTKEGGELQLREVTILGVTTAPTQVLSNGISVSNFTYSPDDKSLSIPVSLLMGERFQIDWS

Rattus norvegicus [3] = assay: Antihyperglycemic activity in starch-induced post-parandial hyperglycemic Rattus norvegicus Wistar (rat) model assessed as decrease in plasma glucose level at 10 mg/kg, po administered via gastric intubation by glucose-oxidase test; format: functional, organism-based; design: dose 10 mg/kg; conditions: TDE = time-dependent effect
Rattus norvegicus [4] = assay: Antihyperglycemic activity in starch-induced post-parandial hyperglycemic Rattus norvegicus Wistar (rat) model assessed as decrease in plasma AUC at 10 mg/kg, po administered via gastric intubation administered 15 min followed by starch challenge measured after 30 to 120 min by glucose-oxidase test; format: functional, organism-based; design: dose 10 mg/kg
[5] = test system: Radical scavenging activity; assay: Antioxidant activity assessed as concentration required for 50% DPPH free radical scavenging activity after 30 min by spectrophotometric analysis; format: functional
Rattus norvegicus [6] = assay: Antihyperglycemic activity in starch-induced post-parandial hyperglycemic Rattus norvegicus Wistar (rat) model assessed as decrease in plasma glucose level at 50 mg/kg, po administered via gastric intubation by glucose-oxidase test; format: functional, organism-based; design: dose 50 mg/kg; conditions: TDE = time-dependent effect
Rattus norvegicus [7] = assay: Antihyperglycemic activity in starch-induced post-parandial hyperglycemic Rattus norvegicus Wistar (rat) model assessed as decrease in plasma AUC at 50 mg/kg, po administered via gastric intubation administered 15 min followed by starch challenge measured after 30 to 120 min by glucose-oxidase test; format: functional, organism-based; design: dose 50 mg/kg

| Compound | Activity [1] [%] | inhibition [2] [%] | Activity [5] [µM] | other results |
| --- | --- | --- | --- | --- |
| COc1cc(/C=C/C(=O)c2ccc3occc3c2O)ccc1O | 54.2 | 45 | – | – |
| C[C@H]1O[C@H](O[C@H]2[C@H](O)[C@@H](O)[C@@H](O[C@H]3[C@H](O)[C@@H](O)C(O)O[C@@H]3CO)O[C@@H]2CO)[C@H](O)[C@@H](O)[C@@H]1N[C@H]1C=C(CO)[C@@H](O)[C@H](O)[C@H]1O (stereo not given in full) | – | – | – | Activity (Rattus norvegicus [3]): tde; Activity (Rattus norvegicus [4]): Active |
| O=C(/C=C/c1ccc(O)c(O)c1)c1cc2ccoc2cc1O | 69.8 | 62.7 | 26.2 | – |
| COc1ccc(/C=C/C(=O)c2ccc3occc3c2O)cc1 | – | 94.8 | – | – |
| O=C(/C=C/c1ccc(O)cc1)c1ccc2occc2c1O | 75.8 | 65.7 | 17.8 | – |
| O=C(/C=C/c1ccc(O)c(O)c1)c1ccc2occc2c1O | 67.9 | 61.5 | 29.7 | – |
| O=C(/C=C/c1ccccc1)c1cc2ccoc2cc1O | 9.91 | 67.6 | – | – |
| O=C(/C=C/c1ccccc1)c1ccc2occc2c1O | 7.57 | 20.8 | – | – |
| COc1ccc(/C=C/C(=O)c2cc3ccoc3cc2O)cc1OC | 8.78 | 89.3 | – | – |
| COc1ccc(/C=C/C(=O)c2ccc3occc3c2O)c(OC)c1OC | 7.3 | 67.3 | – | – |
| COc1ccc(/C=C/C(=O)c2cc3ccoc3cc2O)cc1 | – | 48.9 | – | – |
| O=C(/C=C/c1ccc(O)cc1)c1cc2ccoc2cc1O | 73.2 | 8.77 | 12 | – |
| COc1cc(OC)c(OC)cc1/C=C/C(=O)c1cc2ccoc2cc1O | 17.1 | 68 | – | – |
| COc1cc(/C=C/C(=O)c2cc3ccoc3cc2O)ccc1O | 42.1 | 52.8 | – | – |
| COc1ccc(/C=C/C(=O)c2ccc3occc3c2O)cc1OC | – | 89.5 | – | Activity (Rattus norvegicus [6]): tde; Activity (Rattus norvegicus [7]): Active |
| Cc1c(C)c2c(c(C)c1O)CCC(C)(C(=O)O)O2 (stereo not given) | 99.5 | – | 4.8 | – |
